Measured values reported in patent US11945862B2, “Compositions and methods for antibody production” (ImmunoGen, Inc., priority 2017, dated 2024).
Where a name gives a salt, the structure may show the parent alone. Read-outs that look alike come from different tables or passages of the source. Each block holds one compound with its values, some of them ahead of it.

How the values were obtained:
physchem = details: thermodynamic from solid
[1] = test system: Calu3 human lung cancer cells; test: Cell viability, microscopic observation and Cell Titer Glo ATP assay; format: cell-based; details: 1 day
Description: The effect of incubating cells with anthraquinone-2-sulfonic acid (AQS) was tested using Calu3 human lung cancer cells. Effects on cell viability were assayed by microscopic observation of cells and by ATP-based viability assay using Cell Titer Glo reagent (Promega).

CHO cells = test: Viability of CHO cells after 1 day treatment; details: antibody-producing CHO cells, about two weeks continuous culture, control 63.8%
[2] = test system: Humanized FOLR1 IgG1 antibody; test: Antibody disulfide reduction by CHO cell lysate (RIPA buffer), thiol per antibody by Ellman's assay; format: biochemical
[3] = Reactivity of AQS with a model thiol, Ellman's assay of thiol groups; details: 1 mM AQS with 1 mM cysteine ethyl ester, PBS, ambient temperature
Description: In a separate experiment, the reactivity of anthraquinone-2-sulfonic acid (AQS) with a model thiol (L-cysteine ethyl ester) at ambient temperature was investigated by incubating 1 mM AQS with 1 mM cysteine ethyl ester at ambient temperature in PBS, using Ellman's assay of thiol groups to measure the extent of reaction. At time points of 1 hour, 2 hours, 3 hours, and 4 hours, the percent decrease in thiol values for the 1 mM AQS with 1 mM cysteine ethyl ester mixture versus thiol in a 1 mM cysteine ethyl ester (No AQS) control were 2%, 8%, 12%, and 20%, respectively.

humanized N901 antibody = test: Antibody disulfide reduction by CHO cell lysate (RIPA buffer), thiol/antibody by Ellman's assay; format: biochemical; details: for decrease in antibody-disulfide reduction: versus control without agent
Description: For all of the examples described below, cell damage was simulated by multiple freeze-thaw cycles of cells, by addition of RIPA buffer (50 mM Tris-HCl, pH 7.4, 1% NP-40, 0.5% sodium deoxycholate, 0.1% sodium dodecylsulfate), or by using microfluidizer. This damaged cell supernatant or lysate was then incubated with a buffered solution containing antibody with or without the anti-reduction agent being tested, following which the extent of the antibody-disulfide reduction was measured using Ellman's assay for thiol (P. W. Riddles, R. L. Blakeley, and B. Zerner, Methods Enzymol., 91, 49-60, 1983) or by non-reducing SDS protein LabChip analysis. The total thiol level present in the mixture of damaged cell supernatant/lysate was measured initially.
The effect of 1,2-naphthoquinone-4-sulfonic acid (NQS) on antibody-disulfide reduction was studied by incubating 1,2-naphthoquinone-4-sulfonic acid at several concentrations with antibody and damaged CHO lysate. The damaged CHO cell lysate was generated by the addition of 0.5 ml RIPA buffer (50 mM Tris-HCl, pH 7.4, 1% NP-40, 0.5% sodium deoxycholate, 0.1% sodium dodecylsulfate) to 100 million CHO cells. The thiol concentration in CHO cell lysate was measured by Ellman's assay as 2.1 mM.
Each sample contained pre-mixed 0.5 ml RIPA buffer (50 mM Tris-HCl, pH 7.4, 1% NP-40, 0.5% sodium deoxycholate, 0.1% sodium dodecylsulfate) with 1 mg humanized N901 antibody, with or without 1,2-naphthoquinone-4-sulfonic acid (25 micromolar, or 50 micromolar, or 100 micromolar), which was added to a cell pellet of 100 million CHO cells, and the resuspended cells were incubated at ambient temperature for 30 minutes, following which the cell debris were pelleted by centrifugation (16,000 g, 5 min). The supernatant from each sample was added to 50 microliter immobilized-Protein A beads (RepliGen) and rotated at ambient temperature for 3 hours, after which the supernatant was removed and the beads washed with PBS.
(§1) The thiol content of the immobilized antibody was determined by the addition of 0.6 ml of PBS containing 0.5 mM DTNB (Ellman's reagent) to the beads, rotation for about 10 minutes, centrifugation, and absorbance measurement of supernatant at 412 nm.
The effect of anthraquinone-2-sulfonic acid (AQS) on antibody-disulfide reduction was studied during co-incubation of anthraquinone-2-sulfonic acid with antibody and damaged CHO lysate. Each sample contained pre-mixed 1 ml RIPA buffer (50 mM Tris-HCl, pH 7.4, 1% NP-40, 0.5% sodium deoxycholate, 0.1% sodium dodecylsulfate) with 1 mg humanized N901 antibody, with or without 0.2 mM anthraquinone-2-sulfonic acid (AQS), which was added to a cell pellet of 100 million CHO cells, and the resuspended cells were incubated at ambient temperature for 30 minutes, following which the cell debris were pelleted by centrifugation (16,000 g, 5 min). The thiol concentration in CHO cell lysate was 1 mM (Ellman's assay).
as §1, with “The supernatant from each sample was added to 50 microliter immobilized-Protein A beads (RepliGen) and rotated at ambient temperature for 3 hours, after which the supernatant was removed and the beads washed with PBS. The” for “The”
In another experiment, 1 mg huN901 antibody was incubated with CHO lysate, with or without 0.4 mM anthraquinone-2-sulfonic acid for 4 hours. The mixture was then analyzed for thiol/antibody as above.
The thiol concentration in CHO cell lysate was 1 mM (Ellman's assay).
The supernatant from each sample was added to 50 microliter immobilized-Protein A beads (RepliGen) and rotated at ambient temperature for 3 hours, after which the supernatant was removed and the beads washed with PBS. […]

humanized FOLR1 IgG1 = test: Antibody fragmentation in HCCF treated with 20% (v/v) microfluidized CHO cells, non-reducing SDS-Protein Lab Chip; format: biochemical; details: 1 mM of each additive, 6 h; control 78% fragmentation
[4] = Redox potential of antibody solution with media additive over a range of DTT concentrations; format: physicochemical; details: 1 mM additive, DTT 0.34 μM to 170 μM, 37° C., 1 h
M9346A antibody [5] = format: biochemical
Humanized IgG2 antibody = test: IgG2 disulfide reduction by CHO cell lysate, DTNB thiol assay; format: biochemical; details: 1 mM agent, 40% v/v CHO cell lysate, 5 hours, pH 7; control 0.84
Description: Humanized IgG2 antibody (1 mg/ml; final concentration) was incubated with 40% v/v CHO cell lysate (˜40 million cells lysed with 0.4 ml RIPA buffer and debris removed by centrifugation) in a total volume of 1 ml. The control sample was adjusted to pH 7 and rotated at RT for 5 hours with 100 μl protein A beads. […] After the incubation time of 5 hours, the supernatant was removed and the beads were washed three times with 10 ml PBS before the thiol amount of the immobilized antibody was analyzed by adding 0.5 mM DTNB and measuring the absorbance at 412 nm.

humanized IgG4 = test: IgG4 disulfide reduction by CHO cell lysate, DTNB thiol assay; format: biochemical; details: 1 mM agent, 30% v/v CHO cell lysate, 4 hours, pH 7; control 7.7
Description: All samples were adjusted to pH 7 and incubated with 200 μl protein A beads for 4 hours while rotating at room temperature. After the incubation the supernatant was removed and beads washed three times with 10 ml PBS. To analyze the thiol content of the protein A-bound IgG4 antibody, the beads were incubated with a 0.5 mM DTNB solution for 5 min and the absorbance of the supernatant measured at 412 nm.

M9346A antibody [6] = format: biochemical; details: 1 mM additive, conditions where control without additive was 100% fragmented
Description: Antibody reduction was induced in a biological assay by adding cell lysate to purified monoclonal antibody. […]. Increasing amounts of CHO cell lysate were added to mimic different percentages of cell lysis, ranging from […]. Fresh NADPH was added to a concentration of 400 μM. The mixtures were incubated in a water bath at 37° C. for 1 h. Free thiols were alkylated by addition of 10% (v/v) of 50 mM N-ethyl-maleimide (NEM) solution. Samples were analyzed by non-reduced sodium dodecyl sulfate denaturing capillary electrophoresis (NR-CE-SDS).
To test the capacity for protection further, the stringency of the assay was increased. […].

- solubility (physchem; water): ≥ 500 mM
SMILES: CC(C)(C)OC(=O)[C@@H](N)CSSC[C@H](N)C(=O)OC(C)(C)C [L-cystine bis(t-butyl ester) dihydrochloride]

SMILES: O=C1c2ccccc2C(=O)c2cc(S(=O)(=O)O)ccc21 [AQS, anthraquinone-2-sulfonic acid]
- Cell Titer Glo luminescence relative to control cells ([1]; 0.25 mM): 100%
- Cell Titer Glo luminescence relative to control cells ([1]; 0.5 mM): 85%
- cytotoxic effects by microscopic observation ([1]; 0.25 and 0.5 mM): no visible cytotoxic effects
- viability count using trypan blue (CHO cells; 0.25 mM): 66.2%
- viability count using trypan blue (CHO cells; 0.5 mM): 64.8%
- viability count using trypan blue (CHO cells; 0.75 mM): 61.7%
- thiol per antibody ([2]; 2 mM agent, 3 hours, pH 7, lysate of ~40 million cells, control 0.95): about 0.18 thiol per antibody
- percent decrease in thiol versus No AQS control ([3]; 1 hour): 2%
- percent decrease in thiol versus No AQS control ([3]; 2 hours): 8%
- percent decrease in thiol versus No AQS control ([3]; 3 hours): 12%
- percent decrease in thiol versus No AQS control ([3]; 4 hours): 20%
- thiol/antibody (humanized N901 antibody; 0.2 mM agent, 3 hours, lysate thiol 1 mM, control 4.86): 2.46 thiol/antibody
- decrease in antibody-disulfide reduction (humanized N901 antibody; 0.2 mM agent, 3 hours): 49%
- thiol/antibody (humanized N901 antibody; 0.4 mM agent alone, 4 hours, control 4.34): 1.65 thiol/antibody
- decrease in antibody-disulfide reduction (humanized N901 antibody; 0.4 mM agent, 4 hours): 62%
- fragmentation compared with no additive control (humanized FOLR1 IgG1): much lower fragmentations

SMILES: [O]=[Cr](=[O])([O-])[O][Cr](=[O])(=[O])[O-] [dichromate, reference compound]
- modulation of redox potential [4]: constant redox potential across all DTT concentrations
- intact antibody (M9346A antibody [5]; 1 mM additive, 100 μM DTT, 37° C., 1 h, control 80%): 100%

SMILES: CC(C)(C)OC(=O)[C@@H](N)CSSC[C@H](N)C(=O)OC(C)(C)C [CDBE, L-cystine bis(t-butyl ester)]
- decrease in disulfide reduction compared to the control ([2]; 0.25 mM agent, another experiment): about 78%
- decrease in disulfide reduction compared to the control ([2]; 0.5 mM agent, 2 hours): about 93%
- thiol per antibody ([2]; 0.5 mM agent, 2 hours, control 2.26): about 0.16 thiol per antibody
- decrease in disulfide reduction compared to the control ([2]; 1 mM agent, 2 hours): ~96%
- thiol per antibody ([2]; 1 mM agent, 2 hours, control 2.26): ~0.10 thiol per antibody
- decrease in disulfide reduction compared to the control ([2]; 2 mM agent, another experiment): ~98%
- reduced thiols per antibody (Humanized IgG2 antibody): near-zero reduction
- thiol groups per antibody (humanized IgG4): no reduced disulfides were detected

- solubility (physchem; pH 7.1, aqueous buffer): < 5 mM
SMILES: Cl.Cl.N[C@@H](CSSC[C@H](N)C(=O)O)C(=O)O [L-cystine dihydrochloride, reference compound]
- thiol per antibody ([2]; L-cystine derived from saturated L-cystine solution, 3 hours, pH 7, control 1.96): about 0.74 thiol per antibody

SMILES: O=S(=O)([O-])[O-].[Cu+2] [copper sulfate]
- protection at increased assay stringency (M9346A antibody [6]): protective of disulfide reduction
- modulation of redox potential [4]: constant redox potential across all DTT concentrations
- intact antibody (M9346A antibody [5]): 100%
